The assay relates to gamma secretase cleavage of NotchΔE (constitutively active rat Notch1 construct ZEDN1). Description: Notch signaling assay for selective inhibitors of gamma secretase (4xwtCBF1 Luciferase reporter gene co-transfected with NotchΔE ZEDN1). Format: cell-based. As to conditions: 'the above assay' (reporter gene based Notch signaling assay), ranges stated as 'from about'. From the text:
“A presenilin-1-dependent gamma-secretase-like protease mediates release of Notch intracellular domain.” Nature 398(6727): 518-22; Mumm, J. S., E. H. Schroeter, M. T. Saxena, A. Griesemer, X. Tian, D. J. Pan, W. J. Ray and R. Kopan (2000). “A ligand-induced extracellular cleavage regulates gamma-secretase-like proteolytic activation of Notch1.” Mol Cell 5(2): 197-206; Zhang, Z., P. Nadeau, W. Song, D. Donoviel, M. Yuan, A. Bernstein and B. A. Yankner (2000). “Presenilins are required for gamma-secretase cleavage of beta-APP and transmembrane cleavage of Notch-1.” Nat Cell Biol 2(7): 463-5). Cleavage of APP by gamma secretase leads to β-amyloid synthesis. Cleavage of Notch1 by gamma secretase results in release of the Notch intracellular domain (NICD), which translocates to the nucleus and activates gene expression (Jarriault, S., C. Brou, F. Logeat, E. H. Schroeter, R. Kopan and A. Israel (1995). “Signalling downstream of activated mammalian Notch.” Nature 377(6547): 355-8; Kopan, R., E. H. Schroeter, H. Weintraub and J. S. Nye (1996). “Signal transduction by activated Notch: importance of proteolytic processing and its regulation by the extracellular domain.” Proc Natl Acad Sci USA 93(4): 1683-8; Schroeter, E. H., J. A. Kisslinger and R. Kopan (1998). “Notch-1 signalling requires ligand-induced proteolytic release of intracellular domain.” Nature 393(6683): 382-6). In particular, Notch signaling activates transcription of the mammalian homolog of the Drosophila transcription factor hairy-enhancer of split (Hes). Transcriptional activation of Hes1 is mediated by de-repression of CBF1/RBPJk upon binding by NICD in the nucleus. These facts have been exploited to develop a reporter gene assay for Notch Signaling Hsieh, J. J., T. Henkel, P. Salmon, E. Robey, M. G. Peterson and S. D. Hayward (1996). “Truncated mammalian Notch1 activates CBF1/RBPJk-repressed genes by a mechanism resembling that of Epstein-Barr virus EBNA2.” Mol Cell Biol 16(3): 952-9; Lu, F. M. and S. E. Lux (1996). “Constitutively active human Notch1 binds to the transcription factor CBF1 and stimulates transcription through a promoter containing a CBF1-responsive element.” Proc Natl Acad Sci USA 93(11): 5663-7).
Due to the importance of Notch signaling in cell fate determination, and tissue differentiation during both development and in the adult, inhibition of Notch signaling by gamma secretase inhibitors is postulated to be a limiting factor in their therapeutic utility. […] “Notch signaling inhibits muscle cell differentiation through a CBF1-independent pathway.” Development 122(12): 3765-73 in combination with the CBF1 repressible Luciferase reporter gene 4xwtCBF1Luc (Hsieh, J. J., et al., (1996). Mol Cell Biol 16(3): 952-9).
When 4xwtCBF1 Luciferase is co-transfected with NotchΔE (ZEDN1), γ-secretase cleavage of NotchΔE releases the Notch intracellular domain (NICD), which translocates to the nucleus and de-represses CBF1mediated transcriptional repression, leading to transcription of the Luciferase reporter gene. Luciferase activity is easily assayed in cell extracts using commercially available kits. The activity of the reporter gene is directly correlated with gamma secretase cleavage of NotchΔE, and as such, a reduction in Luciferase activity provides a convenient measure of inhibition of gamma secretase cleavage of NotchΔE.
As a reminder, the IC50 is the concentration needed to halve the response being measured. Turning to `O=C1NCCCC[C@H]1N(Cc1ccc(C(=O)N(Cc2cccnc2)Cc2cccnc2)cc1)S(=O)(=O)c1ccc(Cl)cc1` [Compound 613, 4-({[(4-chlorophenyl)sulfonyl][(3R)-2-oxoazepan-3-yl]amino}methyl)-N,N-bis(pyridin-3-ylmethyl)benzamide], the IC50 was greater than 1 µM.

For `O=C1NCCCCC1N(Cc1cccn1S(=O)(=O)c1ccccc1)S(=O)(=O)c1ccc(Cl)cc1` (stereo not drawn) [Compound 206, N-(1-Benzenesulfonyl-1H-pyrrol-2-ylmethyl)-4-chloro-N-(2-oxo-azepan-3-yl)-benzenesulfonamide], the IC50 is greater than 1 µM.

On to `CC(C)CNC(=O)c1ccc(CN([C@@H]2CCCCNC2=O)S(=O)(=O)c2ccc(Cl)cc2)cc1` [Compound 486, 4-({[(4-chlorophenyl)sulfonyl][(3R)-2-oxoazepan-3-yl]amino}methyl)-N-isobutylbenzamide], for which the IC50 lay within 0.025 to 0.1 µM.

With `O=C1c2ccccc2C(=O)C1CCCCN([C@@H]1CCCCNC1=O)S(=O)(=O)c1ccc(Cl)cc1` [Compound 108, 4-chloro-N-[4-(1,3-dioxo-2,3-dihydro-1H-inden-2-yl)butyl]-N-[(3R)-2-oxoazepan-3-yl]benzenesulfonamide], the IC50 lay within 0.1 to 1 µM.

For `O=C1NCCCC[C@H]1N(CCCOCc1ccccc1)S(=O)(=O)c1ccc(Cl)cc1` [Compound 89, N-[3-(benzyloxy)propyl]-4-chloro-N-[(3R)-2-oxoazepan-3-yl]benzenesulfonamide], the IC50 was greater than 1 µM.

On to `CC[C@@H](NC(=O)c1ccc(CN([C@@H]2CCCCNC2=O)S(=O)(=O)c2ccc(Cl)cc2)cc1)c1ccccc1` [Compound 553, 4-({[(4-chlorophenyl)sulfonyl][(3R)-2-oxoazepan-3-yl]amino}methyl)-N-[(1R)-1-phenylpropyl]benzamide], for which the IC50 lay within 0.025 to 0.1 µM.

Consider `COC(=O)c1ccc(CN([C@@H]2CCCCNC2=O)S(=O)(=O)c2ccc(Cl)cc2)cc1` [Compound 275, methyl 4-({[(4-chlorophenyl)sulfonyl][(3R)-2-oxoazepan-3-yl]amino}methyl)benzoate], for which the IC50 fell in the range of 0.0001 to 0.025 µM.

As for `O=C1NCC[C@H]1N(Cc1ccc(F)cc1F)S(=O)(=O)c1ccc(Cl)cc1` [Compound 148, 4-chloro-N-(2,4-difluorobenzyl)-N-[(3R)-2-oxopyrrolidin-3-yl]benzenesulfonamide], the IC50 was greater than 1 µM.

As for `NC(=O)CN(C1CCCCNC1=O)S(=O)(=O)c1ccc(Cl)cc1` (stereo not drawn) [Compound 338, 2-[(4-Chloro-benzenesulfonyl)-(2-oxo-azepan-3-yl)-amino]-acetamide], the IC50 was greater than 1 µM.

In the case of `O=C1NCCCCC1N(Cc1ccc2c(c1)OCO2)S(=O)(=O)c1ccc(Cl)cc1` (stereo not drawn) [Compound 249, N-Benzo[1,3]dioxol-5-ylmethyl-4-chloro-N-(2-oxo-azepan-3-yl)-benzenesulfonamide], the IC50 fell in the range of 0.0001 to 0.025 µM.

Consider `CSc1ccc(CN(C2CCCCNC2=O)S(=O)(=O)c2ccc(Cl)cc2)cc1` (stereo not drawn) [Compound 269, 4-Chloro-N-(4-methylsulfanyl-benzyl)-N-(2-oxo-azepan-3-yl)-benzenesulfonamide], for which the IC50 lay within 0.0001 to 0.025 µM.

With `O=C(NCc1cccnc1)c1ccc(CN([C@@H]2CCCCNC2=O)S(=O)(=O)c2ccc(Cl)cc2)cc1` [Compound 593, 4-({[(4-chlorophenyl)sulfonyl][(3R)-2-oxoazepan-3-yl]amino}methyl)-N-(pyridin-3-ylmethyl)benzamide], the IC50 was in the range of 0.0001 to 0.025 µM.

Take `C[C@@H](NC(=O)c1ccc(CN([C@@H]2CCCCNC2=O)S(=O)(=O)c2ccc(Cl)cc2)cc1)c1ccccc1` [Compound 537, 4-({[(4-chlorophenyl)sulfonyl][(3R)-2-oxoazepan-3-yl]amino}methyl)-N-[(1R)-1-phenylethyl]benzamide]: the IC50 is 0.0001 to 0.025 µM.

`CC(NC(=O)c1ccc(CN([C@@H]2CCCCNC2=O)S(=O)(=O)c2ccc(Cl)cc2)cc1)c1cccnc1` (stereo partly drawn) [Compound 636, 4-({[(4-chlorophenyl)sulfonyl][(3R)-2-oxoazepan-3-yl]amino}methyl)-N-(1-pyridin-3-ylethyl)benzamide]: the IC50 lay within 0.025 to 0.1 µM.

As for `C=C(CC)CN(C1CCCCNC1=O)S(=O)(=O)c1ccc(Cl)cc1` (stereo not drawn) [Compound 66, 4-Chloro-N-(2-ethyl-allyl)-N-(2-oxo-azepan-3-yl)-benzenesulfonamide], the IC50 was in the range of 0.1 to 1 µM.

For the compound `O=C1NCCCC[C@H]1N(Cc1ccc2c(c1)OCCO2)S(=O)(=O)c1ccc(Cl)cc1` [Compound 77, 4-chloro-N-(2,3-dihydro-1,4-benzodioxin-6-ylmethyl)-N-[(3R)-2-oxoazepan-3-yl]benzenesulfonamide], the IC50 lay within 0.0001 to 0.025 µM.

Regarding `O=C1NCCCC[C@H]1N(Cc1ccc(-c2nnn[nH]2)cc1)S(=O)(=O)c1ccc(Cl)cc1` [Compound 663], the IC50 lay within 0.025 to 0.1 µM.

For `O=C1NCCCCC1N(Cc1ccc(Br)s1)S(=O)(=O)c1ccc(Cl)cc1` (stereo not drawn) [Compound 160, N-(5-Bromo-thiophen-2-ylmethyl)-4-chloro-N-(2-oxo-azepan-3-yl)-benzenesulfonamide], the IC50 was 0.1 to 1 µM.

As for `O=C(NCc1ccccc1OC(F)(F)F)c1ccc(CN([C@@H]2CCCCNC2=O)S(=O)(=O)c2ccc(Cl)cc2)cc1` [Compound 579, 4-({[(4-chlorophenyl)sulfonyl][(3R)-2-oxoazepan-3-yl]amino}methyl)-N-[2-(trifluoromethoxy)benzyl]benzamide], the IC50 is 0.1 to 1 µM.

Turning to `COc1ccc(CN(C2CCCCNC2=O)S(=O)(=O)c2ccc(C(C)(C)C)cc2)cc1OC` (stereo not drawn) [Compound 14, 4-tert-Butyl-N-(3,4-dimethoxy-benzyl)-N-(2-oxo-azepan-3-yl)-benzenesulfonamide], the IC50 is greater than 1 µM.

Consider `CCN(C(=O)c1ccc(CN([C@@H]2CCCCNC2=O)S(=O)(=O)c2ccc(Cl)cc2)cc1)C1CCCCC1` [Compound 609, 4-({[(4-chlorophenyl)sulfonyl][(3R)-2-oxoazepan-3-yl]amino}methyl)-N-cyclohexyl-N-ethylbenzamide], for which the IC50 lay in the range of 0.1 to 1 µM.

For `O=C1NCCCC[C@H]1N(Cc1ccc(-c2nnc(-c3ccccc3)o2)cc1)S(=O)(=O)c1ccc(Cl)cc1` [Compound 672], the IC50 is greater than 1 µM.

Regarding `O=C(CCCc1ccccc1)Nc1ccc(CN([C@@H]2CCCCNC2=O)S(=O)(=O)c2ccc(Cl)cc2)cc1F` [Compound 505, N-[4-({[(4-chlorophenyl)sulfonyl][(3R)-2-oxoazepan-3-yl]amino}methyl)-2-fluorophenyl]-4-phenylbutanamide], the IC50 is 0.1 to 1 µM.

As for `O=C1NCCCC[C@H]1N(Cc1ccc2ccccc2c1)S(=O)(=O)c1ccc(Cl)cc1` [Compound 227, 4-chloro-N-(2-naphthylmethyl)-N-[(3R)-2-oxoazepan-3-yl]benzenesulfonamide], the IC50 is 0.025 to 0.1 µM.

For the origin of these results see patent publication US7939657B2, “N-substituted benzene sulfonamides” (Elan Pharmaceuticals, Inc., priority 2003, dated 2011).
